The text below walks through data of publication PMC13047053, “Crystal structure of human INPP5K with an allosteric inhibitor reveals the structural basis for species specific potency” (Scientific Reports, 2026).

“Also recorded” adds a separate entry of the source. Some results are limits rather than exact numbers.

Experiment in all cases: Inorganic phosphate detection assay for phosphatase inhibition
What all share (assay type): biochemical

In experiment [1] the target is T1, human INPP5K (Homo sapiens, UniProt Q9BT40).
T1 construct: full-length human INPP5K (amino acids 1–448, UniProt ID: Q9BT40); FLAG (N); made in house; host or cells: Expi293 cells (pcDNA3.4, transient)
T1 sequence (Q9BT40 1-448): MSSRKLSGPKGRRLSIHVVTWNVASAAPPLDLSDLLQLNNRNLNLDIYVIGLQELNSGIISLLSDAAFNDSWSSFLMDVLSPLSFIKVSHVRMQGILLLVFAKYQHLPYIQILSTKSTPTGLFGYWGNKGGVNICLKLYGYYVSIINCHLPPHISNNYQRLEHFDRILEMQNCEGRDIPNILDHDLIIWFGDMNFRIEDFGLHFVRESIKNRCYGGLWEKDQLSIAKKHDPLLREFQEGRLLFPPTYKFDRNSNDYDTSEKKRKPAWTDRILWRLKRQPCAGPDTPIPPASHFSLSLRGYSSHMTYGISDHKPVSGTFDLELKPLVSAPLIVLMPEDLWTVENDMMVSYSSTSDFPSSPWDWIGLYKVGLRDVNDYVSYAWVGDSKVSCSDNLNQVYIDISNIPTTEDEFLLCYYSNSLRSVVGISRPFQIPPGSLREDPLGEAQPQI
From the text:
(§1) The protein purification is described in detail elsewhere. Briefly, full-length human INPP5K (amino acids 1–448, UniProt ID: Q9BT40), rat INPP5K (aa 1–446, UniProt ID: Q9R0B6), mouse INPP5K (aa 1–468, UniProt ID: Q8C5L6), hamster INPP5K (aa 1–453, UniProt ID: G3HTF6), guinea pig INPP5K (aa 1–473, UniProt ID: H0V8T7) containing an N-terminal FLAG-tag, full-length human SHIP2 (aa 1–1 258) containing a C-terminal FLAG-tag, and full-length human PIPP (amino acids 1–1 006) containing an N-terminal His8-tag were all cloned into the pcDNA3.4 expression vector and transiently expressed in Expi293 cells (Thermo Fisher Scientific). The PH domain of human TAPP1 (amino acids 180–404) containing an N-terminal GST-tag was expressed in a pGEX6P1 expression vector (GE Healthcare) in E. coli strain BL21 ((Merck KGaA, Darmstadt, Germany)), following IPTG induction at 37 °C for 5 h. All the FLAG-tagged INPP5Ks and hSHIP2 were purified using affinity columns containing DDDDK-tagged protein purification gel (MBL, Medical & Biological Laboratories Co., Ltd., Tokyo, Japan), followed by size-exclusion chromatography with Superdex 200 columns (GE Healthcare). His8-tagged hPIPP was purified using Ni–NTA Superflow (Qiagen) and Superdex 200 columns. The GST-tagged hTAPP1 domain was purified using a Glutathione Sepharose 4B (GE Healthcare) and Superdex 200 columns. The purity of the protein obtained was evaluated using SDS-PAGE.
(§2) The release of inorganic phosphate was measured using a PiPer Phosphate Assay Kit (Thermo Fisher Scientific), according to the manufacturer’s instructions, but with some modifications. Enzyme reactions were performed in a final volume of 10 µL per well in a 384-well nonbinding black plates (Greiner Bio-One International, GmbH, Kremsmünster, Austria). The reaction mixtures containing 20 µM diC8-PI(3,4,5)P₃ and each enzyme (human INPP5K, mouse INPP5K, rat INPP5K, hamster INPP5K, guinea pig INPP5K, human SHIP2, or human PIPP) in reaction buffer (50 mM Tris–HCl pH 7.0, 150 mM NaCl, 7.5 mM MgCl₂, 0.03% Igepal CA-630, 0.03% gelatin), with or without various concentrations of inhibitor, were incubated for 20 min at room temperature. The reactions were then stopped and detection reactions were initiated by adding 5 µL of detection mix 1 (60 mM EDTA, 12 U/mL maltose phosphorylase, and 0.6 mM maltose in 100 mM Tris–HCl pH 8.0). After incubation for 60 min at room temperature, 5 µL of detection mix 2 (8 U/mL glucose oxidase, 0.8 U/mL HRP, and 100 µM Amplex Red in 100 mM Tris–HCl pH 8.0) was added, and the mixture was incubated for a further 30 min at room temperature in the dark. The fluorescence generated was measured using an Envision plate reader at 531/590 nm (excitation/emission), and the percentage inhibition was calculated as described above.

In experiment [2] the target is T2, rat INPP5K (Rattus norvegicus, UniProt A0A0G2K2Z2).
T2 construct: rat INPP5K (aa 1–446, UniProt ID: Q9R0B6); FLAG (N); made in house; host or cells: Expi293 cells (pcDNA3.4, transient)
T2 sequence (A0A0G2K2Z2 1-446): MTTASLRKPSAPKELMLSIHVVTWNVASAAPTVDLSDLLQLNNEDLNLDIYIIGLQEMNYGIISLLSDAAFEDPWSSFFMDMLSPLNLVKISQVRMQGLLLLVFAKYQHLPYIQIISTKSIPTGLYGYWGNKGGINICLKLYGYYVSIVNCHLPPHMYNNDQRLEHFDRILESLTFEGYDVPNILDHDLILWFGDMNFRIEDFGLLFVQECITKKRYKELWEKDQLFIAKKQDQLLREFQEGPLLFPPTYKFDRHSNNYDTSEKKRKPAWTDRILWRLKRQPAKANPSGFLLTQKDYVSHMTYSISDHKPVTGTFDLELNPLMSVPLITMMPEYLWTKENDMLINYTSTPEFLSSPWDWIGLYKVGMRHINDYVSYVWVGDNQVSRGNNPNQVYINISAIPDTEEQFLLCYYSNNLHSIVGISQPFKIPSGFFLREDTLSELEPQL
Excerpt: as §1, §2

For experiment [3], the target named is T3, mouse INPP5K (Mus musculus, UniProt Q8C5L6).
T3 construct: mouse INPP5K (aa 1–468, UniProt ID: Q8C5L6); FLAG (N); made in house; host or cells: Expi293 cells (pcDNA3.4, transient)
T3 sequence (Q8C5L6 1-468): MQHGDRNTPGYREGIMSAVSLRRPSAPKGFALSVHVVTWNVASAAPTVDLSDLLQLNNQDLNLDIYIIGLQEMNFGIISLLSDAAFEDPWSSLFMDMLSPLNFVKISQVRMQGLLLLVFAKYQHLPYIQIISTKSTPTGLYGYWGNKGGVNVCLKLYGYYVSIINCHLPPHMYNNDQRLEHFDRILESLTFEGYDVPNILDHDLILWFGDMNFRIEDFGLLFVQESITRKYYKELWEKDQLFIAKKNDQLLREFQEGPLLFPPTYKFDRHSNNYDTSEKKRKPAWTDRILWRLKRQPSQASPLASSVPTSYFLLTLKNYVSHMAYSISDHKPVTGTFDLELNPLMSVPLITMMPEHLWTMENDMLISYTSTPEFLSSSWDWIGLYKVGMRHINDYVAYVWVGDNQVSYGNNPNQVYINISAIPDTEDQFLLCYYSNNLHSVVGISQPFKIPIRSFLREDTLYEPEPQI
Excerpt: as §1, §2

[4] abbreviates: inorganic phosphate detection assay, 20 µM diC8-PI(3,4,5)P3, 20 min.

For `CC(C)c1sc(NC(=O)c2ccccc2)c(C(=O)O)c1-c1ccccc1` [CPD-1], the figures for the IC50 in experiment [1] (setting [4]), in experiment [2] (setting [4]) and in experiment [3] (setting [4]) were 2.9 µM, over 100 µM and over 100 µM, respectively. The “mode of inhibition of human INPP5K” value in experiment [1] (result in words) is “noncompetitive inhibition; also recorded: noncompetitive inhibitor”. Also, in experiment [2] (result in words), the “inhibition of rat INPP5K (in words)” value is “no inhibition; also recorded: inactive”. In experiment [3] (result in words), the “inhibition of mouse INPP5K (in words)” value is “no inhibition; also recorded: inactive”.
